Experimental data published in patent US10105357B2, “Indication of antibiotic drugs for preparation of cancer inhibition pharmaceutical composition” (LAUNX BIOMEDICAL CO., LTD., priority 2014, dated 2018).
Where a name gives a salt, the structure may show the parent alone. Read-outs that look alike come from different tables or passages of the source.

How the values were obtained:
Format in all cases: cell-based, human
cancer cell lines = experiment: Cell viability analysis (WST-1) on cancer cell lines; details: drug 10 μM, 72 hours, WST-1; Table 3
[1] = system: HI650 (Lung Adenocarcinoma); experiment: Cell viability analysis, lung cancer HI650; details: Homo sapiens, NCI-H1650, 72 h
[2] = system: A549 (Lung Adenocarcinoma); experiment: Cell viability analysis, lung cancer A549; details: Homo sapiens, A549, 72 h
[3] = system: AGS (Gastric Adenocarcinoma); experiment: Cell viability analysis, gastric cancer AGS; details: Homo sapiens, 72 h
[4] = system: MKN-45 (Gastric Adenocarcinoma); experiment: Cell viability analysis, gastric cancer MKN-45; details: Homo sapiens, MKN-45, 72 h
[5] = system: HepG2 (Hepatocellular Carcinoma); experiment: Cell viability analysis, hepatic cancer HepG2; details: Homo sapiens, HepG2, 72 h
[6] = system: Hep3B (hepatocellular carcinoma); experiment: Cell viability analysis, hepatic cancer Hep3B; details: Homo sapiens, Hep3B, 72 h, read-out: The results of antibiotic drug inhibiting cancer cell lines (cell viability analysis), Hep3B
[7] = system: LoVo (Colorectal Adenocarcinoma); experiment: Cell viability analysis, colon cancer LoVo; details: Homo sapiens, LoVo, 72 h
[8] = system: A375 (Amelanotic Melanoma); experiment: Cell viability analysis, skin cancer A375; details: Homo sapiens, A-375, 72 h
[9] = system: BCC (basal cell carcinoma); experiment: Cell viability analysis, skin cancer BCC; details: Homo sapiens, 72 h, read-out: The results of antibiotic drug inhibiting cancer cell lines (cell viability analysis), BCC
[10] = system: HeLa (Cervix Adenocarcinoma); experiment: Cell viability analysis, cervical cancer HeLa; details: Homo sapiens, HeLa, 72 h
[11] = system: C-33A (Cervical carcinoma); experiment: Cell viability analysis, cervical cancer C-33A; details: Homo sapiens, C-33-A, 72 h, read-out: The results of antibiotic drug inhibiting cancer cell lines (cell viability analysis), C-33A
[12] = system: PC3 (p53−) (Prostate Adenocarcinoma); experiment: Cell viability analysis, prostate cancer PC3; details: Homo sapiens, 72 h
[13] = system: TSGH-8301 (Urinary Bladder Carcinoma); experiment: Cell viability analysis, bladder cancer TSGH-8301; details: Homo sapiens, 72 h
T24 = experiment: Cell viability analysis, bladder cancer T24; details: Homo sapiens, T-24, 72 h, read-out: The results of antibiotic drug inhibiting cancer cell lines (cell viability analysis), T24
[14] = system: MCF7 (Mammary Gland, Adenocarcinoma); experiment: Cell viability analysis, breast cancer MCF7; details: Homo sapiens, MCF7, 72 h
[15] = system: MDA-MB-231 (Mammary Gland, Adenocarcinoma); experiment: Cell viability analysis, breast cancer MDA-MB-231; details: Homo sapiens, MDA-MB-231, 72 h, read-out: The results of antibiotic drug inhibiting cancer cell lines (cell viability analysis), MDA-MB231
BxPC-3 = experiment: Cell viability analysis, pancreatic cancer BxPC-3; details: Homo sapiens, BXPC-3, 72 h, read-out: The results of antibiotic drug inhibiting cancer cell lines (cell viability analysis), BxPC-3
AsPC-1 = experiment: Cell viability analysis, pancreatic cancer AsPC-1; details: Homo sapiens, ASPC1, 72 h, read-out: The results of antibiotic drug inhibiting cancer cell lines (cell viability analysis), AsPC-1
NIH: OVCAR-3 = experiment: Cell viability analysis, ovarian cancer NIH: OVCAR-3; details: Homo sapiens, OVCAR-3, 72 h, read-out: The results of antibiotic drug inhibiting cancer cell lines (cell viability analysis), NIH-OVCAR-3
TOV-21G = experiment: Cell viability analysis, ovarian cancer TOV-21G; details: Homo sapiens, TOV21G, 72 h, read-out: The results of antibiotic drug inhibiting cancer cell lines (cell viability analysis), TOV-21G
[16] = system: SAS (Tongue squamous cell carcinoma); experiment: Cell viability analysis, tongue cancer SAS; details: Homo sapiens, 72 h, read-out: The results of antibiotic drug inhibiting cancer cell lines (cell viability analysis), SAS
U-2OS = experiment: Cell viability analysis, osteosarcoma U-2OS; details: Homo sapiens, U2OS, 72 h, read-out: The results of antibiotic drug inhibiting cancer cell lines (cell viability analysis), U2OS
[17] = system: HL-60 (Acute Promyelocytic Leukemia); experiment: Cell viability analysis, leukemia HL-60; details: Homo sapiens, HL-60, 72 h, read-out: cell viability (survival rate), HL-60, drug 10 μM, 72 hours, WST-1, OD450 nm
[18] = read-out: The results of antibiotic drug inhibiting cancer cell lines (cell viability analysis), H1650, H1650, repeated experiment
[19] = read-out: cell viability (survival rate), H1650, drug 10 μM, 72 hours, WST-1, OD450 nm
[20] = read-out: The results of antibiotic drug inhibiting cancer cell lines (cell viability analysis), A549, A549, repeated experiment
[21] = read-out: cell viability (survival rate), A549, drug 10 μM, 72 hours, WST-1, OD450 nm
[22] = read-out: The results of antibiotic drug inhibiting cancer cell lines (cell viability analysis), AGS, repeated experiment
[23] = read-out: cell viability (survival rate), AGS, drug 10 μM, 72 hours, WST-1, OD450 nm
[24] = read-out: The results of antibiotic drug inhibiting cancer cell lines (cell viability analysis), MKN-45, MKN-45, repeated experiment
[25] = read-out: cell viability (survival rate), MKN-45, drug 10 μM, 72 hours, WST-1, OD450 nm
[26] = read-out: The results of antibiotic drug inhibiting cancer cell lines (cell viability analysis), HepG2, HepG2, repeated experiment
[27] = read-out: cell viability (survival rate), HepG2, drug 10 μM, 72 hours, WST-1, OD450 nm
[28] = read-out: The results of antibiotic drug inhibiting cancer cell lines (cell viability analysis), LoVo, repeated experiment
[29] = read-out: cell viability (survival rate), LoVo, drug 10 μM, 72 hours, WST-1, OD450 nm
[30] = read-out: The results of antibiotic drug inhibiting cancer cell lines (cell viability analysis), A375, A375, repeated experiment
[31] = read-out: cell viability (survival rate), A375, drug 10 μM, 72 hours, WST-1, OD450 nm
[32] = read-out: The results of antibiotic drug inhibiting cancer cell lines (cell viability analysis), HeLa, repeated experiment
[33] = read-out: cell viability (survival rate), HeLa, drug 10 μM, 72 hours, WST-1, OD450 nm
[34] = read-out: The results of antibiotic drug inhibiting cancer cell lines (cell viability analysis), PC-3, PC-3, repeated experiment
[35] = read-out: cell viability (survival rate), PC3, drug 10 μM, 72 hours, WST-1, OD450 nm
[36] = read-out: The results of antibiotic drug inhibiting cancer cell lines (cell viability analysis), TSGH-8301, TSGH-8301, repeated experiment
[37] = read-out: cell viability (survival rate), TSGH, drug 10 μM, 72 hours, WST-1, OD450 nm
[38] = read-out: The results of antibiotic drug inhibiting cancer cell lines (cell viability analysis), MCF-7, MCF-7, repeated experiment
[39] = read-out: cell viability (survival rate), MCF7, drug 10 μM, 72 hours, WST-1, OD450 nm

SMILES | inhibition effect on different cancer cell lines (cancer cell lines) | viability at 10 µM [1, 18] [%] | viability at 10 µM [1, 19] [%] | viability at 10 µM [2, 20] [%] | viability at 10 µM [2, 21] [%] | viability at 10 µM [3, 22] [%] | viability at 10 µM [3, 23] [%] | viability at 10 µM [4, 24] [%] | viability at 10 µM [4, 25] [%] | viability at 10 µM [5, 26] [%] | viability at 10 µM [5, 27] [%] | viability at 10 µM [6] [%] | viability at 10 µM [7, 28] [%] | viability at 10 µM [7, 29] [%] | viability at 10 µM [8, 30] [%] | viability at 10 µM [8, 31] [%] | viability at 10 µM [9] [%] | viability at 10 µM [10, 32] [%] | viability at 10 µM [10, 33] [%] | viability at 10 µM [11] [%] | also measured
Clc1ccc(C(Cn2ccnc2)OCc2ccsc2Cl)c(Cl)c1 (stereo not shown) [Tioconazole] | significant inhibition effect | 90.3 | 72.9 | 100 | 47.6 | 120 | 82.7 | 99.9 | 61 | 109 | 100 | 120 | 99.8 | 83.2 | 97.8 | 60.9 | 87.8 | 96.9 | 58.5 | 114 | viability at 10 µM [12, 34]: 104%; viability at 10 µM [12, 35]: 40.7%; viability at 10 µM [13, 36]: 105%; viability at 10 µM [13, 37]: 68.1%; viability at 10 µM (T24): 88.8%; viability at 10 µM [14, 38]: 97.8%; viability at 10 µM [14, 39]: 48%; viability at 10 µM [15]: 103%; viability at 10 µM (BxPC-3): 69.2%; viability at 10 µM (AsPC-1): 80.1%; viability at 10 µM (NIH: OVCAR-3): 92.5%; viability at 10 µM (TOV-21G): 78.5%; viability at 10 µM [16]: 93.6%; viability at 10 µM (U-2OS): 92.4%; viability at 10 µM [17]: 57.1%
CN(C)[C@@H]1C(O)=C(C(N)=O)C(=O)[C@@]2(O)C(O)=C3C(=O)c4c(O)ccc(Cl)c4[C@@](C)(O)[C@H]3C[C@@H]12 [Chlortetracycline HCl] | significant inhibition effect | 88.5 | 59.9 | 99.3 | 45.8 | 99.9 | 69.7 | 142 | 43 | 113 | 75 | 117 | 74.4 | 61.4 | 108 | 49.2 | 97.1 | 84 | 83.9 | 88 | viability at 10 µM [12, 34]: 108%; viability at 10 µM [12, 35]: 38.2%; viability at 10 µM [13, 36]: 152%; viability at 10 µM [13, 37]: 50.4%; viability at 10 µM (T24): 122%; viability at 10 µM [14, 38]: 93.4%; viability at 10 µM [14, 39]: 32.2%; viability at 10 µM [15]: 83.2%; viability at 10 µM (BxPC-3): 63.7%; viability at 10 µM (AsPC-1): 82.1%; viability at 10 µM (NIH: OVCAR-3): 99.3%; viability at 10 µM (TOV-21G): 92.2%; viability at 10 µM [16]: 97.4%; viability at 10 µM (U-2OS): 80.3%; viability at 10 µM [17]: 83.9%
